Earlier results, collected in patent US20240252632A1, “METHODS OF TREATING LUNG CANCER WITH A PD-1 AXIS BINDING ANTAGONIST, AN ANTIMETABOLITE, AND A PLATINUM AGENT” (Genentech, Inc., priority 2018, published 2024).

## [NH3+][Pt-2]1([NH3+])[O]C(=O)C2(CCC2)C(=O)[O]1 [Carboplatin, platinum, diammine[1,1-cyclobutanedicarboxylato(2-)-O,O′]—, (SP-4-2)]
ethanol, acetone, dimethylacetamide
  solubility in ethanol, acetone, and dimethylacetamide: virtually insoluble
water
  solubility in water: approximately 14 mg/mL
